Measurements: PMC11110727, “Exploiting thiol-functionalized benzosiloxaboroles for achieving diverse substitution patterns – synthesis, characterization and biological evaluation of promising antibacterial agents” (RSC Medicinal Chemistry, 2024)
Converted amounts (≈) assume the structure as drawn.

Experiments:
A. baumannii ATCC 19606 = assay: Antibacterial activity: MIC/MBC, MIC with PAβN, disc-diffusion; format: cell-based, Acinetobacter baumannii; conditions: A. baumannii ATCC 19606; for MIC / MBC: Acinetobacter baumannii, ATCC19606; for MIC: read-out: MIC; for diameter of inhibition zone: (-) = zone not observed, paper discs 9 mm
Protocol: (§1) Direct antimicrobial activity was determined against the following standard strains: (1) Gram-positive cocci: methicillin-sensitive Staphylococcus aureus ATCC 6538P (MSSA), methicillin-resistant S. aureus subsp. aureus ATCC 43300 (MRSA), S. epidermidis ATCC 12228, Enterococcus faecium ATCC 6057, E. faecalis ATCC 29212, Bacillus subtilis ATCC 6633; (2) Gram-negative bacteria from Enterobacteriales order: Klebsiella pneumoniae ATCC 13883, Escherichia coli ATCC 25922, Enterobacter cloacae DSM 6234, Proteus mirabilis ATCC 12453, Serratia marcescens ATCC 13880; (3) Gram-negative non-fermentative rods: Acinetobacter baumannii ATCC 19606, Pseudomonas aeruginosa ATCC 27853, Stenotrophomonas maltophilia ATCC 12714, S. maltophilia ATCC 13637, Burkholderia cepacia ATCC 25416, Bordetella bronchiseptica ATCC 4617; (4) yeasts: Candida albicans ATCC 90028, C. krusei ATCC 6258, C. parapsilosis ATCC 22019, C. tropicalis (Castellani) Berkhout ATCC 750, C. tropicalis IBA 171, C. guilliermondii IBA 155, and Saccharomyces cerevisiae ATCC 9763. Moreover, 5 clinical strains of methicillin-resistant S. aureus were also included: NMI 664 K, NMI 1576 K, NMI 1712 K, NMI 1991 K, and NMI 2541 K. All strains were stored at −80 °C. Prior to testing, each bacterial strain was subcultured twice on tryptic soy agar TSA (bioMerieux) medium and yeast strains on Sabouraud dextrose agar (bioMerieux) for 24–48 h at 30 °C to ensure viability. The antimicrobial activity was evaluated as previously described[26] by the disc-diffusion method and the MIC determination assays according to the EUCAST (ref. [71] and [72]) and CLSI (ref. [53] and [73]) recommendations. Assessment of bactericidal (MBC) and fungicidal (MFC) activities was performed according to the CLSI recommendations.[54,74] […] The new benzosiloxaboroles were dissolved in DMSO (Sigma).
(§2) Considering that the MDR efflux pumps often contribute to Gram-negative rod resistance, the MIC values of studied agents, with or without the pump inhibitor, PAβN (20 μg mL^−1) (Sigma), were determined.[75] The MIC was determined using Mueller–Hinton II broth medium (MHB) (Becton Dickinson) by the broth microdilution method, according to the CLSI guideliness.[53] To minimize the influence of PAβN on the destabilization of bacterial cell covers, the tests were conducted in the presence of 1 mM MgSO4 (Sigma).[76] At least a 4-fold reduction in the MIC value after the addition of PAβN was considered significant.[56,77]

[1] = test system: C. guilliermondii IBA 155; assay: Antifungal activity: MIC/MFC, disc-diffusion; format: cell-based; conditions: for MIC: Meyerozyma guilliermondii, IBA155, read-out: MIC; for diameter of inhibition zone: C. guilliermondii IBA 155, (-) = zone not observed, paper discs 9 mm
Protocol: (§3) Direct antimicrobial activity was determined against the following standard strains: (1) Gram-positive cocci: methicillin-sensitive Staphylococcus aureus ATCC 6538P (MSSA), methicillin-resistant S. aureus subsp. aureus ATCC 43300 (MRSA), S. epidermidis ATCC 12228, Enterococcus faecium ATCC 6057, E. faecalis ATCC 29212, Bacillus subtilis ATCC 6633; (2) Gram-negative bacteria from Enterobacteriales order: Klebsiella pneumoniae ATCC 13883, Escherichia coli ATCC 25922, Enterobacter cloacae DSM 6234, Proteus mirabilis ATCC 12453, Serratia marcescens ATCC 13880; (3) Gram-negative non-fermentative rods: Acinetobacter baumannii ATCC 19606, Pseudomonas aeruginosa ATCC 27853, Stenotrophomonas maltophilia ATCC 12714, S. maltophilia ATCC 13637, Burkholderia cepacia ATCC 25416, Bordetella bronchiseptica ATCC 4617; (4) yeasts: Candida albicans ATCC 90028, C. krusei ATCC 6258, C. parapsilosis ATCC 22019, C. tropicalis (Castellani) Berkhout ATCC 750, C. tropicalis IBA 171, C. guilliermondii IBA 155, and Saccharomyces cerevisiae ATCC 9763. Moreover, 5 clinical strains of methicillin-resistant S. aureus were also included: NMI 664 K, NMI 1576 K, NMI 1712 K, NMI 1991 K, and NMI 2541 K. All strains were stored at −80 °C. Prior to testing, each bacterial strain was subcultured twice on tryptic soy agar TSA (bioMerieux) medium and yeast strains on Sabouraud dextrose agar (bioMerieux) for 24–48 h at 30 °C to ensure viability. The antimicrobial activity was evaluated as previously described[26] by the disc-diffusion method and the MIC determination assays according to the EUCAST (ref. [71] and [72]) and CLSI (ref. [53] and [73]) recommendations. Assessment of bactericidal (MBC) and fungicidal (MFC) activities was performed according to the CLSI recommendations.[54,74] The following reference agents were used: fluconazole (in the case of fungi), linezolid (for Gram-positive bacteria), and nitrofurantoin (for Gram-negative rods). The new benzosiloxaboroles were dissolved in DMSO (Sigma).

C. tropicalis ATCC 750 = assay: Antifungal activity: MIC/MFC, disc-diffusion; format: cell-based; conditions: for MIC: Candida tropicalis, ATCC750, read-out: MIC; for diameter of inhibition zone: C. tropicalis ATCC 750, (-) = zone not observed, paper discs 9 mm
Protocol: as §3

[2] = test system: C. parapsilosis ATCC 22019; assay: Antifungal activity: MIC/MFC, disc-diffusion; format: cell-based; conditions: for MIC: Lodderomyces parapsilosis, ATCC22019, read-out: MIC; for diameter of inhibition zone: C. parapsilosis ATCC 22019, (-) = zone not observed, paper discs 9 mm
Protocol: as §3

C. tropicalis IBA 171 = assay: Antifungal activity: MIC/MFC, disc-diffusion; format: cell-based; conditions: for MIC: Candida tropicalis, IBA171, read-out: MIC; for diameter of inhibition zone: C. tropicalis IBA 171, (-) = zone not observed, paper discs 9 mm
Protocol: as §3

E. faecalis ATCC 29212 = assay: Antibacterial activity: MIC/MBC determination and disc-diffusion; format: cell-based; conditions: Enterococcus faecalis, ATCC29212; E. faecalis ATCC 29212; read-out: MIC
Method in brief: (§4)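 Disc-diffusion and broth MIC assays followed EUCAST and CLSI recommendations; MBC/MFC were determined per CLSI. Strains were subcultured twice before testing (bacteria on tryptic soy agar, yeasts on Sabouraud dextrose agar, 24–48 h, 30 °C). Compounds were dissolved in DMSO.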

[3] = test system: S. epidermidis ATCC 12228; assay: as above; format: cell-based; conditions: Staphylococcus epidermidis, ATCC12228, S. epidermidis ATCC 12228; for MIC: read-out: MIC
Method in brief: as §4

P. mirabilis ATCC 12453 = assay: Antibacterial activity: MIC/MBC, MIC with PAβN, disc-diffusion; format: cell-based, Proteus mirabilis; conditions: P. mirabilis ATCC 12453; for MIC: Proteus mirabilis, ATCC12453, read-out: MIC; for diameter of inhibition zone: (-) = zone not observed, paper discs 9 mm; for -fold reduction of MIC in the presence of PAβN: PAβN 20 μg mL^−1, MHB + 1 mM MgSO4
Protocol: as §1, §2

P. aeruginosa ATCC 27853 = assay: as above; format: cell-based; conditions: Pseudomonas aeruginosa, ATCC27853, P. aeruginosa ATCC 27853; for MIC: read-out: MIC
Protocol: as §1, §2

S. marcescens ATCC 13880 = assay: as above; format: cell-based, Serratia marcescens; conditions: S. marcescens ATCC 13880; for MIC: Serratia marcescens, ATCC13880, read-out: MIC; for diameter of inhibition zone: (-) = zone not observed, paper discs 9 mm; for -fold reduction of MIC in the presence of PAβN: PAβN 20 μg mL^−1, MHB + 1 mM MgSO4
Protocol: as §1, §2

Row | SMILES | MIC (A. baumannii ATCC 19606) | MIC [1] | MIC (C. tropicalis ATCC 750) | MIC [2] | MIC (C. tropicalis IBA 171) | MIC (E. faecalis ATCC 29212) | MBC [3] | MIC [3] | MIC (P. mirabilis ATCC 12453) | MIC (P. aeruginosa ATCC 27853) | MIC (S. marcescens ATCC 13880) | diameter of inhibition zone (A. baumannii ATCC 19606) | MBC (A. baumannii ATCC 19606) | diameter of inhibition zone (P. mirabilis ATCC 12453) | -fold reduction of MIC in the presence of PAβN (P. mirabilis ATCC 12453) | diameter of inhibition zone (S. marcescens ATCC 13880) | -fold reduction of MIC in the presence of PAβN (S. marcescens ATCC 13880) | diameter of inhibition zone [1] | diameter of inhibition zone (C. tropicalis ATCC 750) | diameter of inhibition zone [2] | also measured
1 | C[Si]1(C)OB(O)c2cc(F)c(SCCC(=O)Nc3cnccn3)c(F)c21 [Compound 10, 3-((5,7-Difluoro-3-hydroxy-1,1-dimethyl-1,3-dihydrobenzo[c][1,2,5]oxasilaborol-6-yl)thio)-N-(pyrazin-2-yl)propanamide] | > 400 µg/mL | > 400 µg/mL | > 400 µg/mL | > 400 µg/mL | > 400 µg/mL | 200 µg/mL (≈ 506 µM) | 400 µg/mL (≈ 1010 µM) | 50 µg/mL (≈ 126 µM) | > 400 µg/mL | > 400 µg/mL | > 400 µg/mL | – | – | – | – | – | – | – | – | – | –
2 | Cc1cc(NC(=O)CCSc2c(F)cc3c(c2F)[Si](C)(C)OB3O)no1 [Compound 11, 3-((5,7-Difluoro-3-hydroxy-1,1-dimethyl-1,3-dihydrobenzo[c][1,2,5]oxasilaborol-6-yl)thio)-N-(5-methylisoxazol-3-yl)propanamide] | > 400 µg/mL | > 400 µg/mL | > 400 µg/mL | > 400 µg/mL | > 400 µg/mL | 200 µg/mL (≈ 502 µM) | 400 µg/mL (≈ 1000 µM) | 25 µg/mL (≈ 62.8 µM) | > 400 µg/mL | > 400 µg/mL | > 400 µg/mL | – | – | – | – | – | – | – | – | – | –
3 | C[Si]1(C)OB(O)c2cc(F)c(SC3CC(=O)NC3=O)c(F)c21 (stereo not shown) [Compound 12, 3-((5,7-Difluoro-3-hydroxy-1,1-dimethyl-1,3-dihydrobenzo[c][1,2,5]oxasilaborol-6-yl)thio)pyrrolidine-2,5-dione] | 100 µg/mL (≈ 291 µM) | > 400 µg/mL | > 400 µg/mL | > 400 µg/mL | > 400 µg/mL | 25 µg/mL (≈ 72.8 µM) | 400 µg/mL (≈ 1170 µM) | 6.25 µg/mL (≈ 18.2 µM) | > 400 µg/mL | > 400 µg/mL | 200 µg/mL (≈ 583 µM) | 18 mm | 200 µg/mL (≈ 583 µM) | 14 mm | 4 -fold | 28 mm | 2 -fold | – | – | – | -fold reduction of MIC in the presence of PAβN (A. baumannii ATCC 19606; PAβN 20 μg mL^−1, MHB + 1 mM MgSO4): 2 -fold
4 | C[Si]1(C)OB(O)c2ccc(SC3CC(=O)NC3=O)c(F)c21 (stereo not shown) [Compound 13, 3-((7-Fluoro-3-hydroxy-1,1-dimethyl-1,3-dihydrobenzo[c][1,2,5]oxasilaborol-6-yl)thio)pyrrolidine-2,5-dione] | 50 µg/mL (≈ 154 µM) | > 400 µg/mL | > 400 µg/mL | > 400 µg/mL | > 400 µg/mL | 25 µg/mL (≈ 76.9 µM) | – | 25 µg/mL (≈ 76.9 µM) | 400 µg/mL (≈ 1230 µM) | 200 µg/mL (≈ 615 µM) | 100 µg/mL (≈ 308 µM) | 20 mm | 100 µg/mL (≈ 308 µM) | 18 mm | 4 -fold | 29 mm | 2 -fold | – | – | – | MBC (P. aeruginosa ATCC 27853): 400 µg/mL (≈ 1230 µM)
5 | C[Si]1(C)OB(O)c2cc(F)c(SC3CC(=O)N(c4ccc(F)cc4)C3=O)c(F)c21 (stereo not shown) [Compound 14, 3-((5,7-Difluoro-3-hydroxy-1,1-dimethyl-1,3-dihydrobenzo[c][1,2,5]oxasilaborol-6-yl)thio)-1-(4-fluorophenyl)pyrrolidine-2,5-dione] | > 200 µg/mL | 100 µg/mL (≈ 229 µM) | 200 µg/mL (≈ 457 µM) | 100 µg/mL (≈ 229 µM) | 200 µg/mL (≈ 457 µM) | 25 µg/mL (≈ 57.2 µM) | – | 50 µg/mL (≈ 114 µM) | > 200 µg/mL | > 200 µg/mL | > 200 µg/mL | – | – | – | – | – | – | 31 mm | 20 mm | 27 mm | diameter of inhibition zone (C. tropicalis IBA 171): 19 mm
6 | C[Si]1(C)OB(O)c2ccc(SC3CC(=O)N(c4ccc(F)cc4)C3=O)c(F)c21 (stereo not shown) [Compound 15, 3-((7-Fluoro-3-hydroxy-1,1-dimethyl-1,3-dihydrobenzo[c][1,2,5]oxasilaborol-6-yl)thio)-1-(4-fluorophenyl)pyrrolidine-2,5-dione] | > 200 µg/mL | 200 µg/mL (≈ 477 µM) | > 200 µg/mL | 200 µg/mL (≈ 477 µM) | > 200 µg/mL | 12.5 µg/mL (≈ 29.8 µM) | – | 12.5 µg/mL (≈ 29.8 µM) | > 200 µg/mL | > 200 µg/mL | > 200 µg/mL | – | – | – | – | – | – | 28 mm | 14 mm | 23 mm | diameter of inhibition zone (C. tropicalis IBA 171): 15 mm
